From ChEMBL document CHEMBL6153032, “Discovery of a highly potent, N-terminal domain-targeting degrader of AR-FL/AR-V7 for the treatment of prostate cancer” (Eur J Med Chem, 2025)
Active and inactive are the calls of the source. The calls are words filed in the database; no cut-off is given here.

Columns and labels:
[1] = biological target: Voltage-gated inwardly rectifying potassium channel KCNH2 (Homo sapiens, UniProt Q12809); test: Inhibition of hERG; format: toxicity
[2] = Toxicity in BALB/c mouse assessed as spleen damage at 10 mg/kg, iv administered once daily for 21 days by H and E staining based analysis; format: organism-based; conditions: in vivo, 504 h, time 21 day
[3] = biological target: T1, Protein cereblon/Androgen receptor (Homo sapiens, UniProt P10275+Q96SW2); test: PROTAC activity at full length Androgen receptor/CRBN in human 22Rv1 cells assessed as reduction in full length androgen receptor level incubated for 24 hrs by Western blot analysis; format: cell-based
[4] = biological target: Protein cereblon/Estrogen receptor (Homo sapiens) (UniProt P03372+Q96SW2); test: PROTAC activity at CRBN/ERalpha in human 22Rv1 cells assessed as reduction in ERalpha protein level at 0.01 to 5 uM measured after 24 hrs by Western blot analysis; format: cell-based; conditions: dose 0.01-5 µM
CWR22R [5] = test: Downregulation of TMPRSS2 mRNA level in human 22Rv1 cells incubated for 24 hrs by qRT-PCR analysis; format: functional, cell-based; conditions: dose 100-500 nM
CWR22R [6] = test: Induction of cell cycle arrest in human 22Rv1 cells assessed as accumulation of cells at S phase at 500 nM incubated for 24 hrs by PI staining based flow cytometry analysis (reference value: […]%); format: functional
[7] = tested on: Protein cereblon/Androgen receptor (Homo sapiens), P10275+Q96SW2 [UNDEFINED MUTATION]; test: PROTAC activity at AR-V7/CRBN in human 22Rv1 cells assessed as induction of AR-V7 degradation at 100 nM incubated for 12 hrs in presence of Thalidomide by Western blot analysis; format: cell-based; conditions: CWR22R
CWR22R [8] = test: Induction of apoptosis in human 22Rv1 cells assessed as viable cells at 500 nM incubated for 48 hrs by Annexin V/FITC staining based flow cytometry analysis (reference value: 94.49%); format: functional; conditions: read-out: Activity
[9] = AUC (0 to infinity) in Sprague-Dawley rat 2 mg/kg, iv by LC-MS/MS analysis; format: ADME, organism-based; conditions: in vivo
[10] = Metabolic stability in rat liver microsome assessed as half life measured upto 45 mins by LC/MS analysis; format: ADME; conditions: liver microsomes
[11] = Metabolic stability in mouse liver microsome assessed as half life measured upto 45 mins by LC/MS analysis; format: ADME; conditions: liver microsomes
CWR22R [12] = test: Induction of apoptosis in human 22Rv1 cells assessed as late apoptotic cells at 100 nM incubated for 48 hrs by Annexin V/FITC staining based flow cytometry analysis (reference value: 1.12 %); format: functional
[13] = Metabolic stability in human liver microsome assessed as half life measured upto 45 mins by LC/MS analysis; format: ADME; conditions: liver microsomes
CWR22R [14] = test: Antiproliferative activity against human 22Rv1 cells incubated for 4 days by CCK-8 assay; format: functional, cell-based; conditions: 22Rv1, 96 h
CWR22R [15] = test: Inhibition of colony formation in human 22Rv1 cells assessed as reduction in colony formation incubated for 14 days; format: functional, cell-based; conditions: dose 1-100 nM, time 14.0 day
CWR22R [16] = test: Induction of apoptosis in human 22Rv1 cells assessed as viable cells at 100 nM incubated for 48 hrs by Annexin V/FITC staining based flow cytometry analysis (reference value: 94.49%); format: functional; conditions: read-out: Activity
[17] = Tmax in Sprague-Dawley rat 2 mg/kg, iv by LC-MS/MS analysis; format: ADME, organism-based; conditions: in vivo
[18] = tested on: Protein cereblon/Androgen receptor (Homo sapiens), P10275+Q96SW2 [UNDEFINED MUTATION]; test: PROTAC activity at AR-V7/CRBN in human 22Rv1 cells assessed as induction of AR-V7 degradation at 100 nM incubated for 12 hrs in presence of MG132 by Western blot analysis; format: cell-based; conditions: CWR22R
CWR22R [19] = test: Induction of cell cycle arrest in human 22Rv1 cells assessed as accumulation of cells at G2/M phase at 100 nM incubated for 24 hrs by PI staining based flow cytometry analysis (reference value: 8.61%); format: functional
CWR22R [20] = test: Induction of cell cycle arrest in human 22Rv1 cells assessed as accumulation of cells at G0/G1 phase at 100 nM incubated for 24 hrs by PI staining based flow cytometry analysis (reference value: 62.66%); format: functional
CWR22R [21] = test: Induction of cell cycle arrest in human 22Rv1 cells assessed as accumulation of cells at G0/G1 phase at 500 nM incubated for 24 hrs by PI staining based flow cytometry analysis (reference value: 62.66%); format: functional
CWR22R [22] = test: Induction of apoptosis in human 22Rv1 cells assessed as early apoptotic cells at 500 nM incubated for 48 hrs by Annexin V/FITC staining based flow cytometry analysis (reference value: 2.08 %); format: functional
[23] = Toxicity in BALB/c mouse assessed as heart damage at 10 mg/kg, iv administered once daily for 21 days by H and E staining based analysis; format: organism-based; conditions: in vivo, 504 h, time 21 day
CWR22R [24] = test: Induction of apoptosis in human 22Rv1 cells assessed as early apoptotic cells at 100 nM incubated for 48 hrs by Annexin V/FITC staining based flow cytometry analysis (reference value: 2.08 %); format: functional
[25] = tested on: Protein cereblon/Androgen receptor (Homo sapiens), P10275+Q96SW2 [UNDEFINED MUTATION]; test: PROTAC activity at AR-V7/CRBN in human 22Rv1 cells assessed as reduction in AR-V7 level at 1 uM by Western blot analysis; format: cell-based; conditions: CWR22R, time 6.0 hrs
[26] = MRT (0 to t) in Sprague-Dawley rat 2 mg/kg, iv by LC-MS/MS analysis; format: ADME, organism-based; conditions: in vivo
[27] = biological target: T1, Protein cereblon/Androgen receptor; test: PROTAC activity at full length Androgen receptor/CRBN in human 22Rv1 cells assessed as induction of full length Androgen receptor degradation at 1 uM incubated for 24 hrs by Western blot analysis relative to control; format: cell-based
Target sequence in this assay (P10275 whole entry, looked up): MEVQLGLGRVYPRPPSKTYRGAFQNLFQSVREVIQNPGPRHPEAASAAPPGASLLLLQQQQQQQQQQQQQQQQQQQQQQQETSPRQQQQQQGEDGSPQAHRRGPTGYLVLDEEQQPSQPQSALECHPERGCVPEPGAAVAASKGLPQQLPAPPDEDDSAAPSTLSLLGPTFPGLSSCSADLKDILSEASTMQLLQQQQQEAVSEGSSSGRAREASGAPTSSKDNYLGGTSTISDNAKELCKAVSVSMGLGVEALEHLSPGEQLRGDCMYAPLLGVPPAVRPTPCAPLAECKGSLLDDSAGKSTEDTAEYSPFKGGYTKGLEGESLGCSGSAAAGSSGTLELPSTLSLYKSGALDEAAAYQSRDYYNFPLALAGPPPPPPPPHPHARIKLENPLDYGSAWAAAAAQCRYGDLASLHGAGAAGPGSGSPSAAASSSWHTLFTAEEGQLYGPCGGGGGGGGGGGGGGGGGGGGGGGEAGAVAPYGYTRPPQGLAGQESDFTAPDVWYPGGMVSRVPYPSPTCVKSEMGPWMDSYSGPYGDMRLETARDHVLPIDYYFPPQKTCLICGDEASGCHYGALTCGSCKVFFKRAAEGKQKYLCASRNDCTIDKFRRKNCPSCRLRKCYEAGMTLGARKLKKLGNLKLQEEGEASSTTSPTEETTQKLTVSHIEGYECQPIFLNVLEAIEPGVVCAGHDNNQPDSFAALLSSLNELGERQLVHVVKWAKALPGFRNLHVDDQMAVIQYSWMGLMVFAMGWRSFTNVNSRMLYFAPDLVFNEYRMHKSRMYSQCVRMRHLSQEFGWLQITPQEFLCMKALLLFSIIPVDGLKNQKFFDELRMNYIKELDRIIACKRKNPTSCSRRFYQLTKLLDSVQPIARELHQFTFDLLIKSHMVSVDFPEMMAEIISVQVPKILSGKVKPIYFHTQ
Target sequence in this assay (Q96SW2 whole entry, looked up): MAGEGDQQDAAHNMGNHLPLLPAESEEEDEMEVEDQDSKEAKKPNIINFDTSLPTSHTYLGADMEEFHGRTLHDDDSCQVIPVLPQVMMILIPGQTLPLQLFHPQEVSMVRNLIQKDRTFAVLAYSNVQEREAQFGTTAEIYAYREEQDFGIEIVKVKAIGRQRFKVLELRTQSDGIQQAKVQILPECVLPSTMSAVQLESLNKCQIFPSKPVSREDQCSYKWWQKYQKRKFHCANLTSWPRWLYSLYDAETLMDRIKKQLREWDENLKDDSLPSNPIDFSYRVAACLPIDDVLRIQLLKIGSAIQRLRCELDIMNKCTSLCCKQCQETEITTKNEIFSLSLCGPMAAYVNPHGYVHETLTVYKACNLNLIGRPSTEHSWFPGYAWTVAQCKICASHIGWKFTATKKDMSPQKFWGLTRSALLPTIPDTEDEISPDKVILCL

[28] = Metabolic stability in human liver microsome assessed as intrinsic clearance measured upto 45 mins by LC/MS analysis; format: ADME; conditions: liver microsomes, read-out: CLH
[29] = Toxicity in BALB/c mouse assessed as lung damage at 10 mg/kg, iv administered once daily for 21 days by H and E staining based analysis; format: organism-based; conditions: in vivo, 504 h, time 21 day
[30] = Half life in Sprague-Dawley rat 2 mg/kg, iv by LC-MS/MS analysis; format: ADME, organism-based; conditions: in vivo
CWR22R [31] = test: Induction of apoptosis in human 22Rv1 cells assessed as necrotic cells at 500 nM incubated for 48 hrs by Annexin V/FITC staining based flow cytometry analysis (reference value: 2.31 %); format: functional
[32] = Metabolic stability in rat liver microsome assessed as intrinsic clearance measured upto 45 mins by LC/MS analysis; format: ADME; conditions: liver microsomes, read-out: CLH
CWR22R [33] = test: Induction of cell cycle arrest in human 22Rv1 cells assessed as accumulation of cells at G2/M phase at 500 nM incubated for 24 hrs by PI staining based flow cytometry analysis (reference value: 8.61%); format: functional
[34] = biological target: T1, Protein cereblon/Androgen receptor; test: PROTAC activity at full length Androgen receptor/CRBN in human 22Rv1 cells assessed as induction of full length androgen receptor degradation at 100 nM incubated for 12 hrs in presence of MLN4924 by Western blot analysis; format: cell-based
Target sequence in this assay (P10275 whole entry, looked up): as the sequence (P10275 whole entry, looked up) above
Target sequence in this assay (Q96SW2 whole entry, looked up): as the sequence (Q96SW2 whole entry, looked up) above

DU-145 = test: Antiproliferative activity against human DU-145 cells assessed as cell viability incubated for 4 days by CCK-8 assay; format: functional, cell-based; conditions: DU-145, 96 h
[35] = biological target: T1, Protein cereblon/Androgen receptor; test: (§1) PROTAC activity at AR-V7/CRBN in human 22Rv1 cells assessed as reduction in AR-V7 level incubated for 24 hrs by Western blot analysis; format: cell-based; conditions: cwr22r
Target sequence in this assay (P10275 whole entry, looked up, change not shown): as the sequence (P10275 whole entry, looked up) above
Target sequence in this assay (Q96SW2 whole entry, looked up, change not shown): as the sequence (Q96SW2 whole entry, looked up) above

[36] = tested on: Protein cereblon/Androgen receptor (Homo sapiens), P10275+Q96SW2 [UNDEFINED MUTATION]; test: as §1; format: cell-based; conditions: CWR22R, dose <= 5.0 µM

Sequence of Protein cereblon/Androgen receptor (Homo sapiens), P10275+Q96SW2 [UNDEFINED MUTATION] (P10275 whole entry, looked up, change not shown): as the sequence (P10275 whole entry, looked up) above
Sequence of Protein cereblon/Androgen receptor (Homo sapiens), P10275+Q96SW2 [UNDEFINED MUTATION] (Q96SW2 whole entry, looked up, change not shown): as the sequence (Q96SW2 whole entry, looked up) above
Sequence of Voltage-gated inwardly rectifying potassium channel KCNH2 (Q12809 whole entry): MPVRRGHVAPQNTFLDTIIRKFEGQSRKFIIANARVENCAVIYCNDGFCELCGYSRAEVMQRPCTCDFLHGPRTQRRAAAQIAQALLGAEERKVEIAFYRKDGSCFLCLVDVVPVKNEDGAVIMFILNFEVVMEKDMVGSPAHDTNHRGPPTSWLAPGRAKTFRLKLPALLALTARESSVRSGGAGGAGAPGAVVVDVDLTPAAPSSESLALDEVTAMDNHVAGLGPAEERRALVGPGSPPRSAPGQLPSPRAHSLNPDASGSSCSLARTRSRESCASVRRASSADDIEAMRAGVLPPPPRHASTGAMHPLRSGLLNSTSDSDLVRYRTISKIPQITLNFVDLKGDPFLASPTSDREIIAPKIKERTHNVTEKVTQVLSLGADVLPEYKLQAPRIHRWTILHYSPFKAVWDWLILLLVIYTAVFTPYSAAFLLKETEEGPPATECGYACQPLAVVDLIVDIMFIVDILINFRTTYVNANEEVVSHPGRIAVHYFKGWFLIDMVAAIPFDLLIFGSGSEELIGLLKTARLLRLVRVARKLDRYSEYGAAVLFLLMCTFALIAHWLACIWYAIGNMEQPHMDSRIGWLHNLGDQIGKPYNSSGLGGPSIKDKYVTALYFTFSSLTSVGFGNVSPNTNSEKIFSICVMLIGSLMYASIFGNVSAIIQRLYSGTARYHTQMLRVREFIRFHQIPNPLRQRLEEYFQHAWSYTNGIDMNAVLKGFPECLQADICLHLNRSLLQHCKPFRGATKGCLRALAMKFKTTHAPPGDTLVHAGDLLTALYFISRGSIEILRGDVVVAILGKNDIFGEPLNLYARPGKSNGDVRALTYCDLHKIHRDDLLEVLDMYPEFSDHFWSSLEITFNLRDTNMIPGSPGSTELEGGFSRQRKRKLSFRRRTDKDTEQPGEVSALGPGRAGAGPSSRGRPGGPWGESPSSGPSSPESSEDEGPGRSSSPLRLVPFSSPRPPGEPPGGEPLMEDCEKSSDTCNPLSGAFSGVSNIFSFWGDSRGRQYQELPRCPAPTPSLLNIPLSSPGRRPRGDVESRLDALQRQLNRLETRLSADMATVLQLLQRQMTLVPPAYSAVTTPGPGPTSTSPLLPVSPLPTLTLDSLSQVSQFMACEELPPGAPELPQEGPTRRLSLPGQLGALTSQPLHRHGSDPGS
Sequence of Protein cereblon/Estrogen receptor (Homo sapiens) (P03372 whole entry, looked up): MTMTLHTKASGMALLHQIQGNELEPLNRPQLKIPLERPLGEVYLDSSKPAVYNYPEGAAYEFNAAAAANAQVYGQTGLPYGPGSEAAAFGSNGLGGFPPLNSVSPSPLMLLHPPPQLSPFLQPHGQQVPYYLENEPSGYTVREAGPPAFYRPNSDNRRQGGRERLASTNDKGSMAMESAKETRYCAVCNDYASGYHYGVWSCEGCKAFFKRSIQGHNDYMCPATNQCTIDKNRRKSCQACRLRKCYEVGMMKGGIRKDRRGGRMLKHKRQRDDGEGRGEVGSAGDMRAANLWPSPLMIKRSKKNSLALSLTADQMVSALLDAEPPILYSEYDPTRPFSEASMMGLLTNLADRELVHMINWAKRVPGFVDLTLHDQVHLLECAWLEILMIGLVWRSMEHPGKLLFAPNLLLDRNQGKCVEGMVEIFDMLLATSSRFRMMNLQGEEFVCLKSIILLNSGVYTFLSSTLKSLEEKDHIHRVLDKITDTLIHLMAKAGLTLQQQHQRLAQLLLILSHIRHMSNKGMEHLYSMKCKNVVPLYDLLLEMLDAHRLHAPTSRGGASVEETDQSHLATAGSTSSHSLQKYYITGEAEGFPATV
Sequence of Protein cereblon/Estrogen receptor (Homo sapiens) (Q96SW2 whole entry, looked up): as the sequence (Q96SW2 whole entry, looked up) above

- DC50 [3]: 180 nM
- Activity ([3]; dose <= 5.0 µM): Dose-dependent-effect
- Activity [4]: Active
- Activity [7]: Active
- AUC(0-inf) [9]: 2220 ng·h/mL
- half-life [10]: 61.1 min
- half-life [11]: 18.4 min
- half-life [13]: 37.2 min
- Tmax [17]: 4.98 min
- Activity [18]: Active
- Activity [25]: Time-dependent-effect
- MRT last [26]: 32.4 min
- Activity [27]: 89.2%
- CLint scaled [28]: 43.1 mL/min/kg
- half-life [30]: 158 min
- CLint scaled [32]: 40.8 mL/min/kg
- Activity [34]: Active
- IC50 (DU-145): > 80000 nM
- DC50 [35]: 26 nM
- Activity [36]: Dose-dependent-effect
Compound: CC(C)(c1ccc(OCCNc2cccc3c2C(=O)N(C2CCC(=O)NC2=O)C3=O)cc1)c1ccc(OCc2cccc(N3CCOCC3)n2)cc1 (stereo not drawn)
- IC50 [1]: > 10000 nM
- Activity [2]: Non-toxic
- Activity (CWR22R [5]): Dose-dependent-effect
- Activity (CWR22R [6]): 38.58%
- viability at 0.5 µM (CWR22R [8]): 65.1%
- Activity (CWR22R [12]): 12.29%
- IC50 (CWR22R [14]): 38 nM
- inhibition (CWR22R [15]): Dose-dependent-effect
- viability at 0.1 µM (CWR22R [16]): 71%
- Activity (CWR22R [19]): 15.45%
- Activity (CWR22R [20]): 41.16%
- Activity (CWR22R [21]): 39.88%
- Activity (CWR22R [22]): 16.93%
- Activity [23]: Non-toxic
- Activity (CWR22R [24]): 14.57%
- Activity [29]: Non-toxic
- Activity (CWR22R [31]): 2.4%
- Activity (CWR22R [33]): 21.54%
